Assay results: patent US20080293820A1, “METHODS FOR IMPROVING PHYSICAL FUNCTION IN FIBROMYALGIA” (Cypress Bioscience, Inc., priority 2007, published 2008)
Where a name gives a salt, the structure may show the parent alone.

Tested on: patients who meet the 1990 ACR criteria for fibromyalgia syndrome
Assay: Example 2: multicenter, double-blind, randomized, placebo-controlled monotherapy study of milnacipran for treatment of fibromyalgia (1196 patients)
Type: in vivo, human
Parameters: Mean Change from Baseline in PFI SF-36 domain score / Mean Change from Baseline in ROLP SF-36 domain score / Mean Change from Baseline in PAIN SF-36 domain score / Mean Change from Baseline in GHP SF-36 domain score: scale not given here
Settings: for Composite Pain: number of responders / Composite Syndrome: number of responders / PGIC Component: number of responders / Pain Component: number of responders / SF36 PCS Component: number of responders: 100 mg (399); for time-weighted average (AUC) of SF-36 PCS Scores, Difference from Placebo / time-weighted average (AUC) of SF-36 PCS Scores, LS Mean: Tx3-Tx15, ANCOVA model
Experimental: The primary outcome was a composite responder analysis assessing response rates of two doses (100 mg/day and 200 mg/day) of milnacipran as compared with placebo at Visit Tx15 (week 15).
This was a multicenter, randomized, double-blind, placebo-controlled three-arm study designed which enrolled 1196 patients who meet the 1990 ACR criteria for fibromyalgia syndrome (history of widespread pain and pain in 11 of 18 tender point sites on digital palpation), as well as the more detailed admission criteria outlined in the protocol.
Patients were randomized to receive placebo, 100 mg/day milnacipran or 200 mg/day milnacipran in a ratio of 1:1:1 (placebo=401 patients, 100 mg/day=399 patients, 200 mg/day=396 patients). The patients assigned to the two active treatment arms received a total of 12 weeks of stable-dose milnacipran exposure after the 3 weeks of dosage escalation steps, for a total of 15 weeks of drug exposure. All randomized medications (placebo and milnacipran) were administered twice a day (BID).
The primary efficacy assessment of this study was a composite responder status defined by three domains of interest evaluated at visit Tx15. The domains measured were
1) pain (measured by an electronic diary in the morning as a daily recall pain score); 2) patient global (measured by the PGIC, 1-7 scale); 3) physical function (measured by the SF-36 PCS).
The secondary efficacy parameters were time-weighted average (AUC) of the weekly average PED morning recall pain scores for Weeks 4 through 15, PGIC, and SF-36 PCS for Visit Tx3 to Visit Tx15.
The physical function domain for response analysis was measured by the Physical Component Summary of SF-36 (SF-36 PCS). The SF-36 is a brief, well-established, self-administered patient questionnaire for the assessment of health status, functional status, and quality of life. The SF-36 measures eight domains of health status: physical functioning, role limitations due to physical problems, bodily pain, general health perceptions, energy/vitality, social functioning, role limitations due to emotional problems, and mental health. An SF-36 PCS score and a mental component summary (MCS) score can be calculated by combining and weighting the various individual scales. The PCS and MCS scores have been standardized to have a mean=50, SD=10 in the general healthy US population (see, e.g., Ware, J., M. Kosinski, and J. Dewey, How to Score Version 2 of the SF-36 Health Survey (Standard & Acute Forms). 3rd ed. 2000, Lincoln, R.I.: QualityMetric).
A patient was classified as a responder for the treatment of pain of fibromyalgia if he or she reached Visit Tx15 and satisfied the following criteria: • Greater than or equal to 30% in pain reduction from baseline; • PGIC rated as “much or very much improved,” (i.e., a score of 1 or 2 on the 1-7 scale at endpoint.)
A patient was classified as a responder for the treatment of FMS if he or she satisfied the responder criteria for the treatment of pain of fibromyalgia and the following additional criterion (at visit Tx15): • Improvement on the SF-36 PCS score from baseline by an amount at least equivalent to the minimal clinically important difference, as defined in the Statistical Analysis Plan.
Table 6 summarizes 3-month results for the Baseline Observation Carried Forward (BOCF), Last Observation Carried Forward (LOCF) and study completer (OC) populations. LOCF is an analysis in which observations are carried forward to the last time point for patients who dropped out. The LOCF analysis treats the carried-forward data as observed data at the last time point. BOCF is an analysis that requires that the patient remain active in the trial to be evaluated for response. If a patient withdrew from the trial for any reason, they were classified as a non-responder irregardless of their pain and global scores at the time of withdrawal. […]

[1] = 100 mg, Visits Tx3-Tx15, LOCF, intent to treat

Question: With `CCN(CC)C(=O)C1(c2ccccc2)CC1CN` (racemic) [milnacipran, Z-2-aminomethyl-1-phenyl-N,N-diethylcyclopropanecarboxamide hydrochloride] as the compound, how does the “Composite Pain: number of responders” value (3-months, BOCF) read?
Answer: 91

Question: And the “Composite Syndrome: number of responders” value (3-months, BOCF)?
Answer: 58

Question: And the “PGIC Component: number of responders” value (3-months, BOCF)?
Answer: 125

Question: What about the “Pain Component: number of responders” value (3-months, BOCF) of the same compound?
Answer: 124

Question: And the “SF36 PCS Component: number of responders” value (3-months, BOCF)?
Answer: 108

Question: And the “Composite Pain: number of responders” value (3-months, LOCF)?
Answer: 103

Question: And the “Composite Syndrome: number of responders” value (3-months, LOCF)?
Answer: 65

Question: What about the “PGIC Component: number of responders” value (3-months, LOCF) of the same compound?
Answer: 138

Question: And the “Pain Component: number of responders” value (3-months, LOCF)?
Answer: 149

Question: And the “SF36 PCS Component: number of responders” value (3-months, LOCF)?
Answer: 129

Question: And the “physical function in patients with fibromyalgia compared to placebo (in words)” value (100 mg or 200 mg)?
Answer: surprisingly and effectively improves physical function

Question: And the “Composite Pain: responder rate” value (100 mg, 3-months, BOCF)?
Answer: (22.81%)

Question: And the “Composite Pain: responder rate difference from placebo (unlabelled line)” value (100 mg, 3-months, BOCF)?
Answer: 6.35%

Question: And the “Composite Syndrome: responder rate” value (100 mg, 3-months, BOCF)?
Answer: (14.54%)

Question: What about the “Composite Syndrome: responder rate difference from placebo (unlabelled line)” value (100 mg, 3-months, BOCF) of the same compound?
Answer: 5.81%

Question: And the “PGIC Component: responder rate” value (100 mg, 3-months, BOCF)?
Answer: (31.33%)

Question: What about the “PGIC Component: responder rate difference from placebo (unlabelled line)” value (100 mg, 3-months, BOCF) of the same compound?
Answer: 8.39%

Question: And the “Pain Component: responder rate” value (100 mg, 3-months, BOCF)?
Answer: (31.08%)

Question: What about the “Pain Component: responder rate difference from placebo (unlabelled line)” value (100 mg, 3-months, BOCF) of the same compound?
Answer: 5.89%

Question: What about the “SF36 PCS Component: responder rate” value (100 mg, 3-months, BOCF) of the same compound?
Answer: (27.07%)

Question: And the “SF36 PCS Component: responder rate difference from placebo (unlabelled line)” value (100 mg, 3-months, BOCF)?
Answer: 5.62%

Question: And the “Composite Pain: responder rate” value (100 mg, 3-months, LOCF)?
Answer: (25.81%)

Question: And the “Composite Pain: responder rate difference from placebo (unlabelled line)” value (100 mg, 3-months, LOCF)?
Answer: 7.61%

Question: What about the “Composite Syndrome: responder rate” value (100 mg, 3-months, LOCF) of the same compound?
Answer: (16.29%)

Question: What about the “Composite Syndrome: responder rate difference from placebo (unlabelled line)” value (100 mg, 3-months, LOCF) of the same compound?
Answer: 6.56%

Question: And the “PGIC Component: responder rate” value (100 mg, 3-months, LOCF)?
Answer: (34.59%)

Question: What about the “PGIC Component: responder rate difference from placebo (unlabelled line)” value (100 mg, 3-months, LOCF) of the same compound?
Answer: 9.65%

Question: What about the “Pain Component: responder rate” value (100 mg, 3-months, LOCF) of the same compound?
Answer: (37.34%)

Question: What about the “Pain Component: responder rate difference from placebo (unlabelled line)” value (100 mg, 3-months, LOCF) of the same compound?
Answer: 8.66%

Question: What about the “SF36 PCS Component: responder rate” value (100 mg, 3-months, LOCF) of the same compound?
Answer: (32.33%)

Question: What about the “SF36 PCS Component: responder rate difference from placebo (unlabelled line)” value (100 mg, 3-months, LOCF) of the same compound?
Answer: 6.89%

Question: What about the “Composite Pain: m/n = # of responders/# of patients included” value (100 mg, 3-months, OC) of the same compound?
Answer: 91/236

Question: What about the “Composite Pain: responder rate” value (100 mg, 3-months, OC) of the same compound?
Answer: (38.56%)

Question: And the “Composite Pain: responder rate difference from placebo (unlabelled line)” value (100 mg, 3-months, OC)?
Answer: 13.37%

Question: And the “Composite Syndrome: m/n = # of responders/# of patients included” value (100 mg, 3-months, OC)?
Answer: 58/236

Question: And the “Composite Syndrome: responder rate” value (100 mg, 3-months, OC)?
Answer: (24.58%)

Question: And the “Composite Syndrome: responder rate difference from placebo (unlabelled line)” value (100 mg, 3-months, OC)?
Answer: 11.22%

Question: And the “PGIC Component: m/n = # of responders/# of patients included” value (100 mg, 3-months, OC)?
Answer: 125/263

Question: What about the “PGIC Component: responder rate” value (100 mg, 3-months, OC) of the same compound?
Answer: (47.53%)

Question: And the “PGIC Component: responder rate difference from placebo (unlabelled line)” value (100 mg, 3-months, OC)?
Answer: 15.70%

Question: What about the “Pain Component: m/n = # of responders/# of patients included” value (100 mg, 3-months, OC) of the same compound?
Answer: 124/237

Question: What about the “Pain Component: responder rate” value (100 mg, 3-months, OC) of the same compound?
Answer: (52.32%)

Question: And the “Pain Component: responder rate difference from placebo (unlabelled line)” value (100 mg, 3-months, OC)?
Answer: 13.92%

Question: What about the “SF36 PCS Component: m/n = # of responders/# of patients included” value (100 mg, 3-months, OC) of the same compound?
Answer: 108/263

Question: And the “SF36 PCS Component: responder rate” value (100 mg, 3-months, OC)?
Answer: (41.06%)

Question: What about the “SF36 PCS Component: responder rate difference from placebo (unlabelled line)” value (100 mg, 3-months, OC) of the same compound?
Answer: 11.40%

Question: And the “time-weighted average (AUC) of SF-36 PCS Scores, Difference from Placebo” value (100 mg, LOCF)?
Answer: 16.78

Question: What about the “time-weighted average (AUC) of SF-36 PCS Scores, LS Mean” value (100 mg, LOCF) of the same compound?
Answer: 425.22

Question: And the “time-weighted average (AUC) of SF-36 PCS Scores, Difference from Placebo” value (100 mg, OC)?
Answer: 20.22

Question: What about the “time-weighted average (AUC) of SF-36 PCS Scores, LS Mean” value (100 mg, OC) of the same compound?
Answer: 437.91

Question: What about the “Mean Change from Baseline in GHP SF-36 domain score” value (100 mg, Tx 15, Observed Cohort) of the same compound?
Answer: 6.0

Question: And the “Mean Change from Baseline in PAIN SF-36 domain score” value (100 mg, Tx 15, Observed Cohort)?
Answer: 15.9

Question: What about the “Mean Change from Baseline in PCS Score at Tx 15” value (100 mg, Tx 15, Observed Cohort) of the same compound?
Answer: 5.0

Question: What about the “Mean Change from Baseline in PFI SF-36 domain score” value (100 mg, Tx 15, Observed Cohort) of the same compound?
Answer: 6.8

Question: What about the “Mean Change from Baseline in ROLP SF-36 domain score” value (100 mg, Tx 15, Observed Cohort) of the same compound?
Answer: 13.7

Question: What about the “time-weighted average (AUC) of SF-36 PCS Scores, Mean” value [1] of the same compound?
Answer: 423.86

Question: And the “time-weighted average (AUC) of SF-36 PCS Scores, Median” value [1]?
Answer: 418.2

Question: What about the “time-weighted average (AUC) of SF-36 PCS Scores, Mean” value (100 mg, Visits Tx3-Tx15, OC, intent to treat) of the same compound?
Answer: 435.76
